Test results taken from ChEMBL document CHEMBL1136316, “Low molecular mass peptide dendrimers that express antimicrobial properties” (2003).
Values after ≈ are worked out from the molar mass of the structure shown.

Tests used:
Staphylococcus aureus = test: Antimicrobial activity against Staphylococcus aureus NCTC 4163; format: functional
Escherichia coli = test: Antimicrobial activity against Escherichia coli NCTC 8196; format: functional

Row | MIC (Staphylococcus aureus) [µM] | MIC (Escherichia coli) [µM] | Compound
1 | 85 (≈ 68.3 µg/mL) | 85 (≈ 68.3 µg/mL) | NCCCC[C@@H](NC(=O)OCc1ccccc1)C(=O)NCCC[C@@H](NC(=O)[C@@H](CCCCN)NC(=O)OCc1ccccc1)C(=O)N[C@H](Cc1ccccc1)C(N)=O
2 | 44 (≈ 75.2 µg/mL) | 20 (≈ 34.2 µg/mL) | N=C(N)NCCCC(NC(=O)OCc1ccccc1)C(=O)NCCCCC(NC(=O)C(CCCN=C(N)N)NC(=O)OCc1ccccc1)C(=O)NCCCCC(NC(=O)C(CCCCNC(=O)C(CCCN=C(N)N)NC(=O)OCc1ccccc1)NC(=O)C(CCCN=C(N)N)NC(=O)OCc1ccccc1)C(=O)N[C@H](Cc1ccccc1)C(N)=O (stereo in doubt)
3 | 130 (≈ 153 µg/mL) | 75 (≈ 88 µg/mL) | NC(=O)[C@@H](Cc1ccccc1)NC(=O)[C@@H](CCCCNC(=O)[C@@H](CCCCNC(=O)[C@@H](N)CCCN=C(N)N)NC(=O)[C@@H](N)CCCN=C(N)N)NC(=O)[C@@H](CCCCNC(=O)C(N)CCCN=C(N)N)NC(=O)[C@H](N)CCCN=C(N)N (stereo partly specified)
4 | 181 (≈ 151 µg/mL) | 181 (≈ 151 µg/mL) | C[C@H](N)C(=O)NCCCC[C@H](NC(=O)[C@H](C)N)C(=O)NCCCC[C@H](NC(=O)[C@H](CCCCNC(=O)[C@H](C)N)NC(=O)[C@H](C)N)C(=O)N[C@@H](Cc1ccccc1)C(N)=O (stereo in doubt)
5 | 39 (≈ 31.9 µg/mL) | 64 (≈ 52.3 µg/mL) | NCCCC[C@@H](NC(=O)OCc1ccccc1)C(=O)NCCCC[C@@H](NC(=O)[C@@H](CCCCN)NC(=O)OCc1ccccc1)C(=O)N[C@H](Cc1ccccc1)C(N)=O
6 | 94 (≈ 68.3 µg/mL) | 375 (≈ 273 µg/mL) | NCCCC[C@@H](NC(=O)OCc1ccccc1)C(=O)NCCCC[C@@H](NC(=O)[C@@H](CCCCN)NC(=O)OCc1ccccc1)C(=O)NCC(N)=O
7 | 88 (≈ 150 µg/mL) | 44 (≈ 75.2 µg/mL) | N=C(N)NCCCC(NC(=O)OCc1ccccc1)C(=O)NCCCC[C@@H](NC(=O)C(CCCN=C(N)N)NC(=O)OCc1ccccc1)C(=O)N[C@H](CCCCNC(=O)[C@@H](CCCCNC(=O)C(CCCN=C(N)N)NC(=O)OCc1ccccc1)NC(=O)C(CCCN=C(N)N)NC(=O)OCc1ccccc1)C(=O)N[C@H](Cc1ccccc1)C(N)=O (stereo in doubt)
8 | 16 (≈ 14.2 µg/mL) | 84 (≈ 74.4 µg/mL) | NC(=O)[C@@H](Cc1ccccc1)NC(=O)[C@@H](CCCCNC(=O)[C@H](N)CCCCNC(=O)OCc1ccccc1Cl)NC(=O)[C@H](N)CCCCNC(=O)OCc1ccccc1Cl
9 | 44 (≈ 75.2 µg/mL) | 20 (≈ 34.2 µg/mL) | N=C(N)NCCC[C@@H](NC(=O)OCc1ccccc1)C(=O)NCCCC[C@H](NC(=O)[C@@H](CCCN=C(N)N)NC(=O)OCc1ccccc1)C(=O)N[C@H](CCCCNC(=O)C(CCCCNC(=O)[C@H](CCCN=C(N)N)NC(=O)OCc1ccccc1)NC(=O)[C@H](CCCN=C(N)N)NC(=O)OCc1ccccc1)C(=O)N[C@H](Cc1ccccc1)C(N)=O (stereo partly specified)
10 | 331 (≈ 276 µg/mL) | 331 (≈ 276 µg/mL) | NC(=O)[C@@H](Cc1ccc(O)cc1)NC(=O)[C@@H](CCCCNC(=O)[C@H](N)CCCCNC(=O)OCc1ccccc1)NC(=O)[C@H](N)CCCCNC(=O)OCc1ccccc1
11 | 151 (≈ 64.4 µg/mL) | 324 (≈ 138 µg/mL) | NCCCC[C@H](NC(=O)OCc1ccccc1)C(=O)N[C@@H](Cc1ccccc1)C(N)=O
12 | 1330 (≈ 1110 µg/mL) | 165 (≈ 137 µg/mL) | NCCCC[C@@H](NC(=O)OCc1ccccc1)C(=O)NCCCC[C@@H](NC(=O)[C@@H](CCCCN)NC(=O)OCc1ccccc1)C(=O)N[C@H](Cc1ccc(O)cc1)C(N)=O
13 | 300 (≈ 92.2 µg/mL) | 590 (≈ 181 µg/mL) | COC(=O)[C@H](Cc1ccccc1)NC(=O)[C@@H](N)CCCCN
